Results on eight compounds are retold here after patent US9820990B2, “Methods of treating disorders associated with protein aggregation” (University of Pittsburgh—Of the Commonwealth System of …, priority 2009, dated 2017).

“Also recorded” adds a separate entry of the source. Counter-ions that a name gives are not always drawn. Like-named read-outs stand apart in the source and are kept apart here.

Format in all cases: in vivo, C. elegans
In assay [1] the test system is mCherry::LGG-1. In words: Induction of autophagy in transgenic animals expressing Pnhx-2mCherry::lgg-1. The conditions noted are these: compared with well-fed animals treated with DMSO (diffuse). The text has this:
FIG. 18A-E. Induction of autophagy by hit compounds. Images of transgenic animals expressing Pnhx-2mCherry:lgg-1 treated with various compounds are shown. Images were acquired using a Nikon instruments TiEclipse widefield light microscope fitted with a 20× Plan Apochromat objective. Images were then deconvolved using Volocity (Perkin Elmer, v 5.3.2). Deconvolved z planes were then merged to a single plane. Well-fed animals treated with DMSO (A) show a diffuse mCherry expression throughout the intestine. […] Starved (E) animals are included as a positive control for autophagy. Scale bar, 50 μm.
Macroautophagy is a cellular process in which a double membrane envelops cytosolic components or organelles (autophagosome) and delivers this material to a lysosome (autophagolysosome) for degradation and recycling (reviewed in 79). LGG-1/LC3/Atg8 is a diffuse cytosolic protein that participates in autophagosome formation and becomes inserted into the autophagosome membrane (80). Upon autophagosome formation, LGG-1 fused to mCherry changes its cytoplasmic distribution pattern from diffuse (lower fluorescence intensity) to punctate (higher fluorescence intensity) (80). To determine whether the imaging system could follow this process, a strain expressing a Pnhx-2mCherry::lgg-1 transgene was examined after starvation, a potent inducer of intestinal autophagosome formation (81). In well-fed animals, the diffuse cytoplasmic fluorescence in the intestinal cells was well above that of the N2 background (FIGS. 13K-13L, 13O-13Q). To detect mCherry::LGG-1 puncta, the diffuse fluorescence intensity of the well-fed animals was used to calibrate a threshold from which the SpotDetector BioApplication could detect any high-intensity spots. Although basal autophagy in the well-fed animals yielded a few spots (FIG. 13O), the large number of distinct puncta in the starved animals (FIGS. 13M, 13N, 13O-Q) indicated a marked increase in autophagy that was detected best by a statistically significant increase in spot count or total spot intensity per animal (FIGS. 13O and 13Q, respectively). […]

Assay [2] has as its system sGFP::ATZ. The experiment in a line: LOPAC library high-content primary screen for sGFP::ATZ accumulation in transgenic animals. The conditions noted are these: for Rank-score: 24 h.
Assay [3] has as its system sGFP::ATZ. The experiment in a line: Hit compound characterization: dose-response in the sGFP::ATZ HCS assay. More on the design: key to dose-dependent response: c: Compound demonstrated a dose-dependent response.; Compound failed to demonstrate a dose-dependent response. The conditions noted are these: for degradation of aggregated ATZ protein: Caenorhabditis elegans model system; for effect on sGFP::ATZ accumulation: dose-response, 0-100 μM; for dose-dependent response: retest at 0-100 μM, 24 or 48 hours. The protocol:
Imaging of animals using the ArrayScan VTI: Prior to imaging, worms were anesthetized by adding 30 μl of 0.02 M NaN3 in PBS to each well. Plates were resealed, inverted twice, and incubated for 5 minutes at room temperature. Images were acquired with the ArrayScan VTI HCS Reader fitted with a 2.5× objective and a 0.63× coupler using a 2-channel (TRITC and GFP) assay. Real-time analysis was performed using the SpotDetector BioApplication optimized to quantify fluorescent protein expression in C. elegans. Image acquisition and analysis of a 384-well plate was completed in <45 minutes. The total number of animals in the well was determined by counting the number of red heads (Pmyo-2mRFP) in the TRITC channel. Total spot area or total spot intensity was determined by quantifying the GFP-positive spots in the GFP channel. Total spot area or total spot intensity per animal was determined by dividing the values from the GFP channel by that from the TRITC channel.
Hit compound characterization: Compounds that were identified as potential hits were purchased (if available) and retested for verification. […] Compounds that produced a response in a dose-dependent manner were further tested for a time-dependent response. Compound dose-response curves were performed by dispensing 15 μl of a 4× stock solution into 384-well plates containing 15 μl of assay medium (see above). Thirty-five animals were sorted into each well bringing the volume to ˜60 μl. The final compound concentrations in each well varied from 0-100 μM. Assay plates were incubated in a 22° C. incubator for 24 or 48 hours. Each compound was tested in quadruplicate in at least 2 independent experiments.
Statistical evaluation: Statistical evaluation of data was performed using Prism® (Graphpad Software). The significance of actual and predicted data in FIGS. 12, 14 and 15 was determined using a linear regression analysis and comparing the slope and goodness-of-fit (r2) values. Statistical significance of the spot count, spot area and spot intensity values between N2 (wild-type) and various transgenic lines in FIG. 13 and dose-response in FIG. 17 was determined using an unpaired, one-tailed, Student's t-test.
Compound screen: To test the HCS protocol, a pilot drug screen was performed using the library of pharmacologically active compounds (LOPAC1280™ 1280 compounds). Tight gating parameters for total fluorescence were used to sort 35 young adult Pnhx2sGFP::ATZ animals into wells of 384-well plates containing […] of a LOPAC compound and 0.5% DMSO. Pnhx2sGFP::ATZ animals incubated with 0.5% DMSO served as untreated controls and were placed in the first-two and last-two columns of each plate. In a representative experiment, plate 1 of the LOPAC library was set-up for screening on day 1, and 3 other plates were set-up on the next day. After 24 incubation at 25° C., animals were immobilized by the addition of NaAz and placed in the ArrayScan VTI for automated imaging. To examine for systematic errors, the raw data (total spot area/animal) were depicted as a plate-well scatter plot (FIG. 17A). […] This difference reflects a wider sort-window used to collect animals on day 1 in comparison to that used on day 2. As the average values of the negative controls and that of the sample wells were similar, we combined the control and samples wells for normalization and to identify potential hits using the z-score (FIG. 17B). The ArrayScan VTI reads microtiter plates by rows, alternating from left-to-right, and then right-to-left. For some assays, we noted that the control fluorescence values would drift upwards slightly in rows towards the bottom of the plate. This drift appeared to correlate with an increase in chamber temperature during the scanning period and was minimized by cooling the chamber with a fan or shortening the read times by using 2.5× objective with a 0.6 coupler. Nonetheless, intra-plate variation was controlled for by presenting the data as a B-score (FIG. 17C). […]

Where [4] appears, read: among compounds that decreased ATZ accumulation, based on relative rank-scores.
The mark [5] stands for this setting: average of compound rankings by ascending B-score from two independent screens, 50 μM, <110 decreased, >1225 increased sGFP::ATZ inclusions.
Where [6] appears, read: among compounds that increased ATZ accumulation, based on relative rank-scores.

As for `CC12C(=O)OC(=O)C1(C)C1CCC2O1` (stereo not shown) [cantharidin, 2,6-Dimethyl-4,10-dioxatricyclo-[5.2.1.02,6]decane-3,5-dione], in assay [1], the “mCherry::LGG-1 distribution pattern (autophagic activity)” value is “markedly punctate distribution pattern indicative of increased autophagic activity”. For the same compound, the Overall rank-order in assay [2] (setting [4]) amounted to 2. Further, the Rank-score in assay [2] (setting [5]) was found to be 2.5. Besides, in assay [3] (C. elegans assay), the “concentration at which an anti-protein aggregate effect was achieved” value was 100 µM. Further, in assay [3], the “degradation of aggregated ATZ protein” value is “able to promote degradation of aggregated ATZ protein”, the “effect on sGFP::ATZ accumulation” value is “dose-dependant decrease in sGFP::ATZ accumulation; also recorded: decreased” and the dose-dependent response entry is given as “cantharidin^c”. The “effect on sGFP::ATZ accumulation” value in assay [3] (listed as Cantharidin) is recorded as “dose-dependent decrease in sGFP::ATZ accumulation”.

For `CC(=O)c1c(O)c(C)c(O)c(Cc2c(O)c3c(c(C(=O)/C=C/c4ccccc4)c2O)OC(C)(C)C=C3)c1O` [rottlerin], the Overall rank-order in assay [2] (setting [6]) is recorded as 15. In assay [2] (setting [5]), this compound displayed a Rank-score of 1229.5. Further, the dose-dependent response result in assay [3] is given as “rottlerin^c”.

In assay [2] (setting [4]), `CC/C(=C(\c1ccccc1)c1ccc(OCCN(C)C)cc1)c1ccccc1` [tamoxifen citrate, (Z)-2-[4-(1,2-diphenylbut-1-enyl)phenoxy]-N,N-dimethylethylamine] registered an Overall rank-order of 24. Also, the Rank-score in assay [2] (setting [5]) came to 83.5. In assay [3], the “degradation of aggregated ATZ protein” value is “able to promote degradation of aggregated ATZ protein”, the “effect on sGFP::ATZ accumulation” value was “dose-dependant decrease in sGFP::ATZ accumulation” and the dose-dependent response result was “tamoxifen citrate^c”.

Take `CC(=O)O[C@H]1C(=O)[C@@]2(C)[C@H]([C@H](OC(=O)c3ccccc3)[C@]3(O)C[C@H](OC(=O)[C@H](O)[C@@H](NC(=O)c4ccccc4)c4ccccc4)C(C)=C1C3(C)C)[C@]1(OC(C)=O)CO[C@@H]1C[C@@H]2O` [taxol, 5β,20-Epoxy-1,2α,4,7β, 10β,13α-hexahydroxytax-11-en-9-one 4,10-diacetate 2-benzoate 13-ester with (2R,3S)—N-benzoyl-3-phenylisoserine]: the Overall rank-order in assay [2] was 19. In assay [2] (50 µM), the Rank-score is recorded as 73.5. In addition, in assay [3], the “degradation of aggregated ATZ protein” value is given as “able to promote degradation of aggregated ATZ protein” and the dose-dependent response entry is “taxol^c”.

For `C/C=C(/C)C(=O)O[C@H]1C(C)=C2[C@H]([C@@H]1OC(=O)CCCCCCC)[C@@](C)(OC(C)=O)C[C@H](OC(=O)CCC)[C@@]1(O)[C@H]2OC(=O)[C@@]1(C)O` [thapsigargin], in assay [2] (setting [6]), the Overall rank-order came to 2. The compound also registered a Rank-score in assay [2] (setting [5]) of 1256.0. Moreover, in assay [3], the dose-dependent response result was “thapsigargin^c”.

Compound `CC(C)(C)c1cc(/C=C(\C#N)C(N)=S)cc(C(C)(C)C)c1O` [tyrphostin AG 879] showed an Overall rank-order in assay [2] (setting [6]) of 10. In assay [2] (setting [5]), the Rank-score is listed as 1236.5. Moreover, in assay [3], the “effect on sGFP::ATZ accumulation” value is reported as “increased” and the dose-dependent response result is given as “tyrphostin AG 879^c”. Further, the “effect on sGFP::ATZ accumulation” value in assay [3] (listed as tyrphostatin) is recorded as “increase in sGFP::ATZ accumulation”.

L(−)-norepinephrine bitartrate had an Overall rank-order in assay [2] (setting [4]) of 7. The compound also displayed a Rank-score in assay [2] (setting [5]) of 36.5. Further, the dose-dependent response entry in assay [3] is listed as “L(−)-norepinephrine bitartrate^d”.

Regarding ivermectin, the Overall rank-order in assay [2] (setting [4]) was 1. The same compound returned a Rank-score in assay [2] (setting [5]) of 2.0. The dose-dependent response result in assay [3] is recorded as “ivermectin^d”.
